The source of these data is patent publication US20250073234A1, “COMBINATION THERAPIES INCLUDING PARP1 INHIBITORS” (Cornell University, priority 2022, published 2025).

Test [1] relates to c-FOS and c-JUN at the AP-1A site of the SQSTM1 promoter. The test can be described thus: ChIP-PCR of SQSTM1 promoter (AP-1A) occupancy in WPMY-1 cells. To be noted: 48 h. It counts as cell-based, human. The procedure: WPMY-1 cells were fixed by adding directly to the culture medium formaldehyde (HCHO; from a 37% HCHO-10% methanol stock, Calbiochem) to a final concentration of 1%. […] Chromatin was sheared in a COVARIS S220 Focused-ultrasonicator to yield DNA fragment sizes of 200-1000 base pairs, and diluted 10 times in dilution buffer (20 mM Tris pH 8.0, 2 mM EDTA, 1% triton X-100, 150 mM NaCl and protease inhibitors). Immunoprecipitations were carried out overnight at 4° C. using the following protein A-antibodies complexes: cFOS, FOSB, cJUN, JUNB.
Immunocomplexes were washed three times with buffer TSEI (20 mM Tris pH 8.0, 2 mM EDTA, 1% triton X-100, 150 mM NaCl, 0.1% SDS and protease inhibitors), three washes with buffer TSEII (20 mM Tris pH 8.0, 2 mM EDTA, 1% triton X-100, 500 mM NaCl, 0.1% SDS and protease inhibitors), one wash with buffer TSEIII (10 mM Tris pH 8.0, 250 mM LiCl, 1 mM EDTA, 1% NP40, 1% Deoxycholate and protease inhibitors) and one wash with TE pH 8.0.
Immunocomplexes were extracted in TE containing 1% SDS, and protein-DNA cross-links were reverted by heating at 65° C. overnight. DNA was extracted by using a PCR purification kit (Qiagen). One-tenth of the immunoprecipitated DNA was used in each PCR, for which the promoter-specific primers were used.

In the next test the test system is WPMY-1 cells. The test can be described thus: qPCR of CAF / stromal activation markers in WPMY-1 cells. It counts as cell-based, human. The source says:
To knock out PARP-1 in WPMY-1 cells, single-guide RNA sequences targeting PARP-1 exon2 were purchased from Synthego and transduced into WPMY-1 cells with recombinant Streptococcus pyogenes Cas9 protein (Truecut Cas9 Protein v2, Thermo), using the Neon Transfection System 1 (Invitrogen) following the manufacturer's protocol and single clones were expanded and screened by protein immunoblotting. To perform AP1-A binding site editing in the SQSTM promoter in WPMY-1 cells, single-guide RNA sequences targeting the human AP1-A binding site (Synthego) was transduced into cells with a Cas9 protein and a single-stranded donor oligonucleotide (ssODN, IDT) using Neon Electroporation System. Single clones were expanded and screened for AP1-A editing by Sanger sequencing. A point mutation to disrupt the API enhancer element in the p62 promoter was introduced by Site Directed Mutagenesis (Stratagene). Knockdown of MCT1, MCT4, FOS, PARP1, PARP2, CD38, ATG5, and SIRT1-7 genes in WPMY-1 cells were achieved by siRNA transfection using Lipofectamine RNAiMAX Transfection Reagent (Invitrogen). Transient overexpression was achieved by transfection using X-tremeGENE HP transfection reagent (Roche). Transfected cells were examined 48 hours after transfection. Establishing stably GFP or RFP expressing cells was achieved by lentivirus-mediated transduction. Lentivirus were produced in HEK293T cells using X-tremeGENE HP transfection reagent (Roche). Virus-containing supernatants were collected 48, 72 and 96 hours after transfection, filtered to eliminate cells, and supplemented with 8 μg/ml polybrene. Cells were infected with three rounds of viral supernatants and selected with puromycin (3 μg/ml). For autophagy or proteasome inhibition, WPMY-1 cells were treated for 12 hours with 100 nM bafilomycin Al or 12 hours with 20 μM of MG132, respectively, or vehicle (DMSO). For PARP1 inhibition, WPMY-1 cells were treated with PJ34 (2 days) or Olaparib (4 days) at the doses indicated in each experiment. For MCT1 inhibition, WPMY-1 cells were treated for 48 hours with 10 μM of AZD3965. For cJUN inhibition, WPMY-1 cells were treated for 48 hours with 10 μM of SP600125. For calpains and caspases inhibition, WPMY-1 cells were treated for 48 hours with 1-20 μM of Calpeptin (Tocris) or z-VAD-FMK (Tocris), respectively. For protein synthesis inhibition, WPMY-1 cells were treated with 50 μg/ml of cycloheximide (Sigma). Conditioned media (CM) was generated by collecting supernatant on day 3. CM was transferred to a 15 ml BD Falcon tube and centrifuged at 1300 rpm for 10 minutes. The supernatant was sterile filtered using a […] (Millex-GV) with a 10 ml syringe barrel. The samples were stored at […] for future experiments. Fractionation of the CM was achieved using Amicon Ultra centrifugal filters (3KUltracel, Millipore). The supernatant was centrifuged at 4000 rpm for 1 hour. The supernatant fraction that was >3 kDa remained above the filter and that which was <3 kDa passed through to the lower chamber. The >3-kDa fraction was resuspended in DMEM to the pre-filtration volume.
Total RNA from mouse tissues, cells and cultured organoids was extracted using the TRIZOL reagent (Invitrogen) and the RNeasy Mini Kit (QIAGEN), followed by DNase treatment. After quantification using a Nanodrop 1000 spectrophotometer (Thermo Scientific), RNA was either processed for RNA-seq or reverse-transcribed using random primers and MultiScribe Reverse Transcriptase (Applied Biosystems). Gene expression was analyzed by amplifying 20 ng of the complementary DNA using the CFX96 Real Time PCR Detection System with SYBR Green Master Mix (BioRad) and primers described in Table S1. The amplification parameters were set at 95° C. for 30 seconds, 58° C. for 30 seconds, and 72° C. for 30 seconds (40 cycles total). Gene expression values for each sample were normalized to the 18s RNA.

Take `NC(=O)c1ccc[n+]([C@@H]2O[C@H](COP(=O)([O-])OP(=O)(O)OC[C@H]3O[C@@H](n4cnc5c(N)ncnc54)[C@H](O)[C@@H]3O)[C@@H](O)[C@H]2O)c1` [NAD^+]: the “recruitment of c-FOS and c-JUN to the AP-1 regulatory site in lactate-treated cells” value in test [1] (added to lactate-treated WPMY-1 cells) is reported as “rescued”. Besides, the “lactate-induced expression of CAF activation markers” value in the test with WPMY-1 cells (lactate plus NAD+, 48 h) is reported as “reverted”.
On to `O=C(c1cc(Cc2n[nH]c(=O)c3ccccc23)ccc1F)N1CCN(C(=O)C2CC2)CC1` [Olaparib], for which the “recruitment of c-FOS and c-JUN to the AP-1A binding site in the SQSTM1 promoter” value in test [1] (Olaparib 20 μM) is “impaired the recruitment of c-FOS and c-JUN”. Moreover, the “CAF markers (ACTA2, SFRP1, TGFB, MMP9, HA synthases)” value with WPMY-1 cells (Olaparib, basal and ADT conditions) is on record as “upregulated CAF markers”. In the test on WPMY-1 cells (basal and ADT conditions), the “Has1 and Has3 expression” value was “upregulated”; the Tgfb1 levels entry was “increased levels of Tgfb1”. The SPINK1 levels entry with WPMY-1 cells (human prostate cells, ADT conditions) is “highly upregulated”.
